Consider two compounds from patent US6372297B1, “Wood preservative oxathiazines” (Uniroyal Chemical Company, Inc., priority 1993, dated 2002).

Read-outs that look alike come from different tables or passages of the source.

Assay type in all cases: cell-based
The test system of one assay is Coriolus versicolor. The assay is described as follows: Wood preservative efficacy against fungi, agar plate colony diameter. Particulars: 10 ppm, Table 6B. As for the experimental part: (§1) Each plate was inoculated with a spore suspension or with a small piece of agar (1 mm) from the margin of an actively growing colony of the test fungus. The fungi employed are listed below. After incubation at 22° C. and 70% relative humidity during a period long enough to allow significant growth of untreated controls, the diameters of the fungus colonies were measured and scored using the following rating system: 0=free of fungal growth 1=25% of fungal growth compared to untreated 2=50% of fungal growth compared to untreated 3=75% of fungal growth compared to untreated 4=Growth equal to that of untreated The scores measured for wood preservation efficacy of the compounds of this invention are listed in Tables 6a and 6b. In these Tables, the lower numbers are the most preferred species. Coriolus versicolor

Another assay has as its system Streptomyces albus. The assay is described as follows: Wood preservative efficacy against bacteria and yeasts, tryptose agar plates. The arrangement: key: 0 = growth equal to control, 1 = inhibition, 2 = no growth. In a few lines:
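Compounds in 50% ethanol diluted with sterile water, tested in tryptose agar inoculated with Streptomyces albus. Growth scored once untreated cultures grew: 0 = as control, 1 = inhibited, 2 = no growth.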

For a further assay, the system named is Escherichia coli. Described as above. The arrangement: key: 0 = growth equal to control, 1 = growth inhibited, 2 = no growth. A digest of the protocol:
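Compounds were dissolved in 50% ethanol, diluted with sterile water and tested against inoculated bacterial cultures on agar. Growth was scored against untreated controls: 0 = growth equal to control, 1 = growth inhibited, 2 = no growth.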

A further assay concerns Bacillus cereus mycoides. The arrangement: scale not given here.
A further assay relates to Pseudomonas aeruginosa. The assay is described as follows: Wood preservative efficacy against bacteria and yeasts, tryptose agar plates. Particulars: 100 ppm in tryptose agar. The arrangement: key: 0 = growth equal to control, 1 = growth inhibited, 2 = no growth. A digest of the protocol: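 Compounds were dissolved in 50% ethanol, diluted with sterile water and tested against Pseudomonas aeruginosa inoculated on tryptose agar. Growth was scored against untreated control once the control had grown: 0 = equal growth, 1 = inhibition, 2 = no growth.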

The test system of the next assay is Mucor sp. The assay is described as follows: Wood preservative efficacy against fungi, agar plate colony diameter. Particulars: 100 ppm, Table 6B. Here is the method: as §1, with “Mucor sp.” for “Coriolus versicolor”
The next assay deals with Coniophora puteana. The description is as above. The arrangement: key: 0 = no fungal growth, 1-3 = 25/50/75% of untreated, 4 = equal. Particulars: 10 ppm, Table 6B. As for the experimental part:
as §1, with “Coniophora puteana (syn. C. cerebella)” for “Coriolus versicolor”

Another assay concerns Pseudomonas alcaligenes. The assay is described as follows: Wood preservative efficacy against bacteria and yeasts, tryptose agar plates. The arrangement: key: 0 = growth equal to control, 1 = inhibition, 2 = no growth. Particulars: 100 ppm in tryptose agar. In a few lines: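 Compounds dissolved in 50% ethanol, diluted with sterile water and incorporated into tryptose agar, then inoculated with Pseudomonas alcaligenes. Once untreated cultures grew, scored 0 (growth as control), 1 (inhibited growth) or 2 (no growth).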

The test system of another assay is Penicillium islandicum. The experiment in a line: Wood preservative efficacy against fungi, agar plate colony diameter. On the set-up: key: 1 = 25%, 2 = 50%, 3 = 75%, 4 = 100% of untreated fungal growth. Particulars: 10 ppm, Table 6B. As for the experimental part: The compounds shown in Table 1 were dissolved in 50% ethanol and then diluted with sterile water to give the required concentrations of 1 and 10 ppm in the test agar plates. Malt extract sugar (3%) was added aseptically and uniform distribution was obtained by shaking. Each plate was inoculated with a spore suspension or with a small piece of agar (1 mm) from the margin of an actively growing colony of the test fungus. The fungi employed are listed below. After incubation at 22° C. and 70% relative humidity during a period long enough to allow significant growth of untreated controls, the diameters of the fungus colonies were measured and scored using the following rating system:
1=25% of fungal growth compared to untreated
2=50% of fungal growth compared to untreated
3=75% of fungal growth compared to untreated
4=Growth equal to that of untreated
In these Tables, the lower numbers are the most preferred species.

The test system of another assay is Aspergillus flavus. The description is as above. Particulars: 10 ppm, Table 6B. As for the experimental part:
as §1, with “Aspergillus flavus” for “Coriolus versicolor”

For `COC(=O)c1cccc(C2=NOCC[S+]2[O-])c1` (centres unmarked) [Compound 26], the “Score of fungicidal activity, G. VERSICLOR” value with Coriolus versicolor is 4. Further, the “Score of bactericidal activity, S. albus” value in the assay with Streptomyces albus (10 ppm in tryptose agar) was 0; in the assay on Streptomyces albus (100 ppm in tryptose agar), 2. Besides, the “Score of bactericidal activity, E. Coli” value in the assay on Escherichia coli (10 ppm in tryptose agar) and in the assay on Escherichia coli (100 ppm in tryptose agar) was 0 throughout. For the same compound, the “Score of bactericidal activity, B. cereus mycoides” value in the assay with Bacillus cereus mycoides (10 ppm in tryptose agar) and with Bacillus cereus mycoides (100 ppm in tryptose agar) was 2 in each case. Besides, in the assay with Pseudomonas aeruginosa, the “Score of bactericidal activity, P. aeruginosa” value was determined as 0. Moreover, the “Score of fungicidal activity, MUCOR SP” value in the assay on Mucor sp. is 2 (50% of growth compared to untreated control). Further, the “Score of fungicidal activity, C. PUTEANA” value in the assay on Coniophora puteana worked out at 4. The “Score of bactericidal activity, P. alcalgenes” value in the assay with Pseudomonas alcaligenes stood at 0. The “Score of fungicidal activity, P. ISLANDICUM” value with Penicillium islandicum amounted to 4. Also, the “Score of fungicidal activity, A. FLAVUS” value with Aspergillus flavus was determined as 4.
Regarding `CCOc1ccc(C2=NOCC[S+]2C)cc1` (centres unmarked) [Compound 28], the “Score of fungicidal activity, G. VERSICLOR” value with Coriolus versicolor is on record as 3 (75% of growth compared to untreated control). Further, the “Score of bactericidal activity, S. albus” value came to 1 with Streptomyces albus (10 ppm in tryptose agar) and 2 in the assay on Streptomyces albus (100 ppm in tryptose agar). Also, the “Score of bactericidal activity, E. Coli” value in the assay with Escherichia coli (10 ppm in tryptose agar) and in the assay on Escherichia coli (100 ppm in tryptose agar) was 0 throughout. Further, the “Score of bactericidal activity, B. cereus mycoides” value with Bacillus cereus mycoides (10 ppm in tryptose agar) amounted to 1; with Bacillus cereus mycoides (100 ppm in tryptose agar) it was 2. Further, the “Score of bactericidal activity, P. aeruginosa” value in the assay on Pseudomonas aeruginosa worked out at 0. In addition, in the assay on Mucor sp., the “Score of fungicidal activity, MUCOR SP” value was 1 (25% of growth compared to untreated control). Moreover, in the assay with Coniophora puteana, the “Score of fungicidal activity, C. PUTEANA” value was 0. Further, the “Score of bactericidal activity, P. alcalgenes” value in the assay with Pseudomonas alcaligenes came to 0. In addition, the “Score of fungicidal activity, P. ISLANDICUM” value in the assay with Penicillium islandicum is listed as 4. Also, the “Score of fungicidal activity, A. FLAVUS” value in the assay on Aspergillus flavus is recorded as 3 (75% of growth compared to untreated control).
